This note sets out measurements from patent US20040044013A1, “1-dimercaptoalkylquinazolin-2,4(1h,3h)-diones as matrix metalloproteinase (mmp) inhibitors” (priority 2001, published 2004).

Holding throughout (format): biochemical
Assay [1] concerns the target T1, catalytic domain of MMP-8 (Homo sapiens, UniProt P22894).
T1 construct: instead of the whole enzyme only its enzymatically active catalytic domain was cloned into E. coli; made in house; host or cells: E. coli
Kind of assay: Quantitative fluorescence assay for matrix metalloproteinases, MMP-8. The text has this:
Cloning and Expression of the Catalytic MMP-8 Domain
The catalytic MMP-8 domain was used as another test enzyme because it has a high degree of stability and is also available as an active enzyme and therefore needs not be activated, which is in consideration as one of the most frequent causes of error since the mercury compounds used for the activation often interfere with the test system and/or the enzyme and in this way can falsify the measuring results. The cloning strategy was directed towards the circumstance that instead of the whole enzyme only its enzymatically active catalytic domain was cloned into E. coli.
The cloning and expression of the recombinant catalytic MMP-8 domain was carried out in accordance with the information given by SCHNIERER et al. (Schnierer S., Kleine T., Gote T., Hillemann A., Knauper V., Tschesche H.: The recombinant catalytic domain of human neutrophil collagenase lacks type I collagen substrate specificity. Biochem Biophys Res Comm (1993), vol. 191, No. 2, 319-326).
(§1) Quantitative Fluorescence Assay for Matrix Metalloproteinases
(§2) The fluorescent group Mca is separated from the internal quencher Dpa by enzymatic cleavage of the synthetic substrate Mca-Pro-Leu-Gly-Leu-Dpa-Ala-Arg-NH2 using the respective collagenase. This is accompanied by a great increase in fluorescence in the measuring batch, which can be quantified using a fluorimeter (λex 328 nm, λem 393 nm) and proceeds linearly within the first few minutes. […] The proteolytic residual activity of pre-incubated batches of enzyme and inhibitor is measured, the substrate and enzyme concentrations having been kept constant and the inhibitor concentration having been varied. […]
(§3) 5 min. preliminary incubation of the enzyme-inhibitor mixture at room temperature while stirring start of the reaction with 10 μl substrate dissolved in DMSO recording of the time-sensitive fluorescence increase over a period of 2 min.

The target in assay [2] is T2, MMP-9 (Homo sapiens, UniProt P14780).
T2 construct: from tissue; host or cells: human buffy coat (leukocytes)
In words: Quantitative fluorescence assay for matrix metalloproteinases, MMP-9. As to the method:
Preparation of the Human Collagenase MMP-9
Native MMP-9 was obtained reproducibly and with good yield and purity from human Buffy Coat. For this purpose, Buffy Coat is brought to a final concentration of 0.4% using 10% (v/v) triton X-100, shaken on ice for 30 min. and then 1 vol. double binding buffer (40 mM Tris-HCl, pH 7.5, 10 mM CaCl2, 1 M NaCl, 0.2% (v/v) triton X-100) is added and shaking on ice is continued for another 30 min.
The solution is centrifuged off at 16,000 rpm on an SS-34 rotor at 4° C. for 15 min. and filtered on glass wool. The filtrate is batched with gelatin agarose equilibrated with binding buffer and shaken on ice for 1 hour.
The charged gelatin agarose is transferred to a column and rinsed in protein-free manner using at least 10 vol. binding buffer. The bound MMP-9 is eluted with 2 gel volumes binding buffer plus 5% (v/v) DMSO.
For an exchange of buffers and simultaneous separation of minor MMP-2 contaminations the eluate can be separated on sephadex G-75 by means of gel filtration. Buffer I (20 mM Tris-HCl, pH 7.5, 5 mM CaCl2, 100 mM NaCl, 0.1% (v/v) triton X-100) is used for this purpose. […]
as §1, §2, §3

Assay [3] addresses T3, recombinant catalytic domain of MT1-MMP (MMP-14) (Homo sapiens, UniProt P50281).
T3 construct: Cloning and Expression of the Catalytic Domains of MT1-MMP and MMP-3; made in house; host or cells: Escherichia coli (inclusion bodies, renatured)
In words: Quantitative fluorescence assay for matrix metalloproteinases, MT1-MMP.
Text: (§4) Cloning and Expression of the Catalytic Domains of MT1-MMP and MMP-3
Based on the good experience with the use of the catalytic domain of MMP-8 in the kinetic measurements, two more recombinant expressions were established analogously, i.e. that of human membrane type 1 matrix metalloproteinase (MT1-MMP; MMP-14) and that of human MMP-3 (stromelysin-1). Both enzymes are exemplary representatives of subgroups of human matrix metalloproteinases. Both proteins may be renatured stably and in catalytically active form from inclusion bodies of transformed Escherichia coli cells. As in the recombinant MMP-8 thus the subsequent activation of the enzymes is dropped, which improves the reproducibility of the kinetic measurements. […]
as §1, §2

For assay [4], the target named is T4, recombinant catalytic domain of MMP-3 (Homo sapiens, UniProt P08254).
T4 construct: Cloning and Expression of the Catalytic Domains of MT1-MMP and MMP-3; made in house; host or cells: Escherichia coli (inclusion bodies, renatured)
In words: Quantitative fluorescence assay for matrix metalloproteinases, MMP-3.
Text: as §4
Based on the good experience with the use of the catalytic domain of MMP-8 in the kinetic measurements, two more recombinant expressions were established analogously, i.e. that of human membrane type 1 matrix metalloproteinase (MT1-MMP; MMP-14) and that of human MMP-3 (stromelysin-1). Both enzymes are exemplary representatives of subgroups of human matrix metalloproteinases. Both proteins may be renatured stably and in catalytically active form from inclusion bodies of transformed Escherichia coli cells. As in the recombinant MMP-8 thus the subsequent activation of the enzymes is dropped, which improves the reproducibility of the kinetic measurements. The purity of the recombinant enzyme domains was at least 70%.
The cloning and expression of the catalytic domains oriented itself by the following publications: Lichte A., Kolkenbrock H., Tschesche H.: The recombinant catalytic domain of membrane-type matrix metalloproteinase-1 (MT1-MMP) induces activation of progelatinase A and progelatinase A complexed with TIMP-2. […]
as §1, §2, §3

Assay [5] deals with T5, MMP-2 (Homo sapiens, UniProt P08253).
T5 construct: endogenous in cells; host or cells: cultured human dermal fibroblasts (secreted into culture supernatant)
T5 sequence (P08253 110-660): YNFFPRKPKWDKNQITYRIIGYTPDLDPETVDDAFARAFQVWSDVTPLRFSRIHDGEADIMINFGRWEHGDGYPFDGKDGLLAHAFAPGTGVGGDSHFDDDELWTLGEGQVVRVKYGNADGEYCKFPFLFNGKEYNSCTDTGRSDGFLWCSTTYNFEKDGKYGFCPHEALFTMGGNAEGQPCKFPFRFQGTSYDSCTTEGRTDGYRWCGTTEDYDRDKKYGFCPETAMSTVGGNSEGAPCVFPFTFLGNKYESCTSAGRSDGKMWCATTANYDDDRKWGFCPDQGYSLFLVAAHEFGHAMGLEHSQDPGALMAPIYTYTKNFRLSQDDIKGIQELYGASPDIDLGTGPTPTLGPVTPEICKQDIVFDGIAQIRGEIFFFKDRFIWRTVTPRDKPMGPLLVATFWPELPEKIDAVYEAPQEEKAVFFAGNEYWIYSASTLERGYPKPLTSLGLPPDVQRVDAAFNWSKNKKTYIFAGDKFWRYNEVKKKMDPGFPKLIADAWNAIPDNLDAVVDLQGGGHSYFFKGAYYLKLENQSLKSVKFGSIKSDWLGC
In words: Quantitative fluorescence assay for matrix metalloproteinases, MMP-2. As to the method:
Inhibition of Matrix Metalloproteinase-2 (MMP-2)
MMP-2 (gelatinase) is supplied by cultured dermal fibroblasts to the culture medium in considerable amounts and is thus easily accessible.
For this purpose, human dermal fibroblasts are obtained according to established standard methods and cultured and the cell-free culture supernatant is treated with trypsin. Trypsin is then inactivated with a specific inhibitor (TLCK) and active MMP-2 is partially purified by affinity chromatography on gelatin sepharose and subsequent gel filtration on sepharose. MMP-2 was identified and characterized by the availability of a commercial immunoassay.
as §1
The fluorescent group Mca is separated from the internal quencher Dpa by enzymatic cleavage of the synthetic substrate Mca-Pro-Leu-Gly-Leu-Dpa-Ala-Arg-NH2 using the respective collagenase. This is accompanied by a great increase in fluorescence in the measuring batch, which can be quantified using a fluorimeter (λex 328 nm, λem 393 nm) and proceeds linearly within the first few minutes. A certain specificity of the test to matrix metalloproteinases follows from the amino acid sequence -Pro-Leu-Gly-Leu- in the substrate, on the one hand, and from the select incubation conditions, on the other hand. Matrix metalloproteinases cleave the substrate at the Gly-Leu bond. The proteolytic residual activity of pre-incubated batches of enzyme and inhibitor is measured, the substrate and enzyme concentrations having been kept constant and the inhibitor concentration having been varied. Three series of measurements using a different substrate concentration were made for each tested inhibitor.
[…] inhibitor dissolved in DMSO, or DMSO alone (non-inhibitory approach) 4 μl enzyme (MMP-2 or MMP-9 or catalytic domain of MMP-8)
as §3

SMILES strings stand for the structures.

T2 sequence (P14780 107-707 limits assumed): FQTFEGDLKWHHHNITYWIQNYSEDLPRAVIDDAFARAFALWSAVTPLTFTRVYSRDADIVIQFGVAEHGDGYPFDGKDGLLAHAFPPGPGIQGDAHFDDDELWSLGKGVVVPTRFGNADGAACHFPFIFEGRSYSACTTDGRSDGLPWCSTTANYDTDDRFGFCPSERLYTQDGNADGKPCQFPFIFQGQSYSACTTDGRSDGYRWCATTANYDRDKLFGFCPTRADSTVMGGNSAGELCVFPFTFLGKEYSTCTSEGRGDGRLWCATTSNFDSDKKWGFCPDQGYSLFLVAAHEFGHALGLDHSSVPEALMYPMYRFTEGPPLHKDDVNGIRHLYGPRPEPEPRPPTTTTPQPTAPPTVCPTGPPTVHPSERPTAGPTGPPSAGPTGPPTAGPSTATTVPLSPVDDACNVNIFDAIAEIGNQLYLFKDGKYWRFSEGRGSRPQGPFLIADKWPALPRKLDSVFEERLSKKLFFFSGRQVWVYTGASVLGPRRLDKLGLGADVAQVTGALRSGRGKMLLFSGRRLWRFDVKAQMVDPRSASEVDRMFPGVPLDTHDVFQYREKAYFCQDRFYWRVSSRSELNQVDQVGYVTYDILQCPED
T4 sequence (P08254 100-272 limits assumed): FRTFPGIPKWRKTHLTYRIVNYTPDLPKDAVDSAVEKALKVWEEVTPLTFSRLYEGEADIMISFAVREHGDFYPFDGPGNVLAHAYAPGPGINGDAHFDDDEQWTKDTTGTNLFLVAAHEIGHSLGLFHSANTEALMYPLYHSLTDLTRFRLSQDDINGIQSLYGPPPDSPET
T1 sequence (P22894 100-262 limits assumed): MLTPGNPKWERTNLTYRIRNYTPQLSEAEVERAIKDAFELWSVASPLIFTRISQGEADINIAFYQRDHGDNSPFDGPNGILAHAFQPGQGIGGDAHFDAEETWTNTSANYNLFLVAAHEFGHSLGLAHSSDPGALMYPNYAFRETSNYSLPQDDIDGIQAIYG

`O=c1[nH]c(=O)n(CC(S)CS)c2ccccc12` (racemic) [Example 2, (R,S)-1-(2′,3′-Dimercapto-prop-1′-yl)quinazoline-2,4(1H,3H)-dione] returned an MMP-8 inhibition in assay [1] (with 4 μM inhibitor) of 75%. Further, in assay [2] (with 4 μM inhibitor), the MMP-9 inhibition was 80%. Further, the MT1-MMP inhibition in assay [3] (with 4 μM inhibitor) amounted to 60%. Further, in assay [4] (with 4 μM inhibitor), the MMP-3 inhibition is on record as 75%. The MMP-2 inhibition in assay [5] (with 4 μM inhibitor) is reported as 75%.
For the compound `O=c1[nH]c(=O)n(CCC(S)CS)c2ccccc12` (racemic) [Example 3, (R,S)-1-(3′,4′-Dimercapto-but-1′-yl)quinazoline-2,4(1H,3H)dione], in assay [1] (with 3.5 μM inhibitor), the MMP-8 inhibition was found to be 50%. The compound also showed an MMP-9 inhibition in assay [2] (with 3.5 μM inhibitor) of 50%. The MMP-3 inhibition in assay [4] (with 9 μM inhibitor) was determined as 50%. Also, the MMP-2 inhibition in assay [5] (with 5 μM inhibitor) was 50%.
`O=c1[nH]c(=O)n(C(CS)CS)c2ccccc12` [Example 1, 1-(1′,3′-Dimercapto-prop-2′-yl)quinazoline-2,4(1H,3H)dione] had an MMP-8 inhibition in assay [1] (with 10 μM inhibitor) of 70%. Besides, the MMP-9 inhibition in assay [2] (with 10 μM inhibitor) came out at 60%. Further, in assay [3] (with 10 μM inhibitor), the MT1-MMP inhibition stood at 30% inhi-. The MMP-3 inhibition in assay [4] (with 10 μM inhibitor) is 50%. The compound also registered an MMP-2 inhibition in assay [5] (with 10 μM inhibitor) of 50%.
